Results on 17 compounds are retold here after ChEMBL document CHEMBL4354794, “Potential Anticancer Agents Characterized from Selected Tropical Plants” (J Nat Prod, 2019).

≈ marks a conversion by molar mass, not a printed value. Where only a bound is given, the exact number is not on record here.

One data set concerns SK-OV-3. Description: Antiproliferative activity against human SKOV3 cells assessed as reduction in cell viability after 48 hrs by CCK8 assay. The data set is classed as functional, cell-based. Conditions: SK-OV-3, 48 h. In general terms: Tetrazolium dyes change colour on reduction, which living cells bring about.
The test system of data set [1] is OVCAR-3. Kind of data set: Antiproliferative activity against human OVCAR3 cells assessed as reduction in cell viability after 48 hrs by CCK8 assay. The format is functional, cell-based. Conditions: OVCAR-3, 48 h.
Data set [2] has as its system HT-29. Kind of data set: Antiproliferative activity against human HT-29 cells assessed as reduction in cell viability. The format is functional, cell-based.
Data set [3] relates to OVCAR-3. Description: Antiproliferative activity against human OVCAR3 cells assessed as reduction in cell viability. The data set is classed as functional, cell-based.
For another data set, the system named is OVCAR-8. Description: Antiproliferative activity against human OVCAR8 cells assessed as reduction in cell viability. The data set is classed as functional, cell-based.
Data set [4] concerns HT-29. Description: Antiproliferative activity against human HT-29 cells assessed as reduction in cell viability after 3 days by SRB assay. The data set is classed as functional, cell-based. Conditions: HT-29, 72 h. A general note: The SRB assay estimates cell density from bound dye.
The nature of data set [5]: Inhibition of chymotrypsin-like proteasome (unknown origin) using Suc-LLVY-AMC as substrate by fluorescence based assay. Also noted: species or system Homo sapiens.
The subject of a further data set is A549. Kind of data set: Antiproliferative activity against human A549 cells assessed as reduction in cell viability after 72 hrs by MTT assay. The data set is classed as functional, cell-based. Conditions: A549, 72 h.
The subject of a further data set is HT-3. Kind of data set: Antiproliferative activity against human HT3 cells assessed as reduction in cell viability after 6 days by MTT assay. The format is functional, cell-based. Conditions: HT-3, 144 h.
In the next data set the test system is HeLa. Kind of data set: Antiproliferative activity against human HeLa cells assessed as reduction in cell viability. The format is functional, cell-based.
The test system of data set [6] is KB. Kind of data set: Antiproliferative activity against human KB cells assessed as reduction in cell viability. The data set is classed as functional, cell-based.
The next data set concerns HEp-2. Description: Antiproliferative activity against human Hep2 cells by MTT assay. The format is functional, cell-based.
Data set [7] has as its system KB. Kind of data set: Antiproliferative activity against human KB/HeLa cells assessed as reduction in cell viability. The data set is classed as functional, cell-based.
Another data set deals with DU-145. Kind of data set: Antiproliferative activity against human DU145 cells assessed as reduction in viability after 48 hrs by MTTS assay. The data set is classed as functional, cell-based. Conditions: DU-145, 48 h.
In a further data set the test system is HT. Description: Antiproliferative activity against human HT cells assessed as reduction in cell viability. The format is functional. Conditions: read-out: ED50 (the source's name).
The subject of the next data set is P388. Kind of data set: Antiproliferative activity against mouse P388 cells assessed as reduction in cell viability. The data set is classed as functional, cell-based. Conditions: read-out: ED50 (the source's name).
Data set [8] can be described thus: Antiproliferative activity against human U373 cells assessed as reduction in cell viability. The data set is classed as functional, U-373MG ATCC. Conditions: U373 MG, read-out: ED50 (the source's name).
For the next data set, the system named is A-431. Kind of data set: Antiproliferative activity against human A431 cells assessed as reduction in cell viability. The data set is classed as functional. Conditions: read-out: ED50 (the source's name).
The subject of a further data set is KB-V1. Description: Antiproliferative activity against human KBV1 cells assessed as reduction in cell viability. The format is functional. Conditions: read-out: ED50 (the source's name).
The next data set concerns Col2. Description: Antiproliferative activity against human Col2 cells assessed as reduction in cell viability. The data set is classed as functional, cell-based.
Data set [9] can be described thus: Antiproliferative activity against human BC1 cells assessed as reduction in cell viability. The format is functional. Conditions: read-out: ED50 (the source's name).
Data set [10] has as its target Tyrosine-protein phosphatase non-receptor type 1 (Homo sapiens, UniProt P18031). Kind of data set: Inhibition of recombinant human PTP1B (1 to 322 residues) expressed in Escherichia coli assessed as reduction in p-nitrophenol formation using p-nitrophenyl phosphate as substrate incubated for 30 mins by spectrophotometric method.
A short description of data set [11]: Toxicity in po dosed mouse. The data set is classed as organism-based. Conditions: in vivo.
The next data set concerns HL-60. Description: Antiproliferative activity against human HL60 cells assessed as reduction in cell viability after 3 days by trypan blue dye based hemocytometer counting method. The format is functional. Conditions: HL-60, 72 h.
In a further data set the test system is MDA-MB-231. Description: Antitumour activity against human MDA-MB-231 cells xenografted in Nu/Nu mouse at 10 mg/kg, iv for 6 times at 2 days interval. The data set is classed as functional. Background: A xenograft is tissue or cells of one species grown in another, often human tumour cells in immunodeficient mice.
The nature of data set [12]: Antiproliferative activity against mouse Sch10545 cells incubated for 72 hrs by resazurin dye based fluorescence assay. The format is functional, cell-based.
Data set [13] in a line: Antiproliferative activity against human Ben-Men-1 cells incubated for 72 hrs by resazurin dye based fluorescence assay. The format is functional, cell-based.
The next data set concerns SK-HEP1. Description: Cytotoxicity against human SKHEP1 cells assessed as reduction in viability. The data set is classed as functional, cell-based.
A further data set concerns WRL68. Description: Cytotoxicity against human WRL68 cells assessed as reduction in viability. The format is cell-based.

Sequence of Tyrosine-protein phosphatase non-receptor type 1 (P18031 whole entry, the tested form may be a part): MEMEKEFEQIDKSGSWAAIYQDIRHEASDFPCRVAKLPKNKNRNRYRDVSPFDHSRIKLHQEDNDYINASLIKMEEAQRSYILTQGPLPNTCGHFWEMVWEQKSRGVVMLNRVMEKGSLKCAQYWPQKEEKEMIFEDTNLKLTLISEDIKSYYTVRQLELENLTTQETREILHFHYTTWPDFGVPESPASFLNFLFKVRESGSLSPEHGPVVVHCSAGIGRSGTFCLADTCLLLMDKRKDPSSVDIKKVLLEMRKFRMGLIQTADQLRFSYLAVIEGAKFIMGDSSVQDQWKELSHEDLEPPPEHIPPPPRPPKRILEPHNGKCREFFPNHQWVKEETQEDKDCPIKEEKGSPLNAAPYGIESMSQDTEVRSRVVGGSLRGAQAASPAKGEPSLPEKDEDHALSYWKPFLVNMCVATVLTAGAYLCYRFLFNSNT

As to `O=c1c2cc(O)ccc2oc2cccc(O)c12`, the IC50 in the data set on SK-OV-3 and in the data set with OVCAR-3 [1] was more than 10 µM each time.

Consider `COc1cc2c(O[C@@H]3O[C@H](CO)[C@@H]4OC(C)(C)O[C@@H]4[C@H]3O)c3c(c(-c4ccc5c(c4)OCO5)c2cc1OC)C(=O)OC3`, for which the figures for the IC50 in the data set with HT-29 [2], in the data set with OVCAR-3 [3] and with OVCAR-8 were 0.043 µM, 0.0042 µM and 0.004 µM, respectively.

`O=C1c2c(O)cc(O)cc2O[C@@H](c2ccc(O)cc2)[C@@H]1c1c(O)cc(O)c2c(=O)cc(-c3ccc(O)c(O)c3)oc12`: the IC50 in the data set with HT-29 [4] was more than 10 µM; in [5], 1.3 µM.

For `COC[C@H]1O[C@@H](Oc2c3c(c(-c4ccc5c(c4)OCO5)c4cc(OC)c(OC)cc24)C(=O)OC3)[C@H](OC)[C@@H](OC)[C@H]1OC`, the IC50 in the data set with A549 came out at 0.01 µM.

As for `COC[C@H]1O[C@@H](Oc2c3c(c(-c4ccc5c(c4)OCO5)c4cc(OC)c(OC)cc24)C(=O)OC3)[C@H](OC)[C@@H](OC)[C@@H]1OC`, in the data set with A549, the IC50 worked out at 0.05 µM.

As to `COc1ccc(-c2c3c(c(O)c4cc5c(cc24)OCO5)COC3=O)cc1OC`, the IC50 with HT-3 is more than 10 µg/mL.

As for `O=c1cc(-c2ccc(O)c(-c3c(O)cc(O)c4c(=O)cc(-c5ccc(O)cc5)oc34)c2)oc2cc(O)cc(O)c12` [AMENTOFLAVONE], the IC50 in the data set on HeLa was more than 10 µM.

Consider `CC[C@H](CC[C@@H](C)[C@H]1CC[C@H]2[C@@H]3CC=C4C[C@@H](O)CC[C@]4(C)[C@H]3CC[C@]12C)C(C)C` [BETA-SITOSTEROL], for which the results for the IC50 with KB [6], in the data set with HEp-2 and with KB [7] were more than 10 µg/mL, 11.4 µM and more than 242 µM, respectively.

Consider `C[C@]12CC[C@H]3[C@@H](CC[C@H]4C[C@@H](O)[C@H](O)C[C@@]43C=O)[C@@]1(O)CC[C@@H]2C1=CC(=O)OC1` [CALOTROPAGENIN], for which, in the data set with DU-145, the IC50 came out at 0.48 µM.

With `C[C@@H]1C[C@H](O)[C@]2(O)O[C@@H]3C[C@@]4(C=O)[C@@H](CC[C@@H]5[C@@H]4CC[C@]4(C)[C@@H](C6=CC(=O)OC6)CC[C@]54O)C[C@H]3O[C@@H]2O1` [CALOTROPIN], the IC50 with DU-145 came to 0.03 µM.

For `COc1cc(-c2oc3cc(OC)c(OC)c(O)c3c(=O)c2OC)ccc1O` [CHRYSOSPLENOL B], the EC50 is 0.33 to 1.56 µM in the data set with HT; 0.33 to 1.56 µM in the data set on P388; 0.33 to 1.56 µM in [8]; 0.33 to 1.56 µM in the data set with A-431; 2.14 µM in the data set with KB-V1; 0.33 to 1.56 µM in the data set with KB [7] (read-out: ED50 (the source's name)). In addition, the EC50 in data set [9] lay within 0.33 to 1.56 µM. Also, the 50% inhibitory concentration (IC50) was more than 10 µM in the data set with HT-29 [2] and more than 10 µg/mL with Col2.

On to `CC(C)=CC[C@]12OC(C)(C)[C@H]3C[C@H](C=C4C(=O)c5c(O)cc(O)cc5O[C@@]431)C2=O` [COCHINCHINOXANTHONE], for which the IC50 in data set [10] came out at 6.6 µM.

In [11], `C[C@H]1O[C@@H](O[C@H]2[C@@H](O)C[C@H](O[C@H]3[C@@H](O)C[C@H](O[C@H]4CC[C@@]5(C)[C@H](CC[C@@H]6[C@@H]5CC[C@]5(C)[C@@H](C7=CC(=O)OC7)CC[C@]65O)C4)O[C@@H]3C)O[C@@H]2C)C[C@H](O)[C@@H]1O` [DIGITOXIN] registered an LD50 of 10 to 80 mg/kg.

On to `CC(C)=CCC[C@]1(C)C=Cc2c(O)c3c(c(CC=C(C)C)c2O1)O[C@]12C(=C[C@@H]4C[C@H]1C(C)(C)O[C@@]2(C/C=C(/C)C(=O)O)C4=O)C3=O` [GAMBOGIC ACID], for which the IC50 with HL-60 is 0.17 µM. Further, the “fold change (FC)” value in the data set with MDA-MB-231 worked out at 1.31.

For `C=C(C)C(=O)O[C@H]1C[C@@]2(C)OC(=CC2=O)/C(CO)=C\[C@H]2OC(=O)C(=C)[C@H]12` [GOIAZENSOLIDE], the IC50 in data set [12] and in [13] was 1 µM each time.

For `COc1cc2c(OC)c3c(c(-c4ccc5c(c4)OCO5)c2cc1OC)C(=O)OC3` [JUSTICIDIN A], the 50% inhibitory concentration (IC50) in the data set with HT-3 is 0.0018 µg/mL (≈ 0.00456 µM).

As to `COc1c(O)cc2oc3cc(O)c(CC=C(C)C)c(O)c3c(=O)c2c1CC=C(C)C` [MANGOSTIN], the IC50 with SK-HEP1 was 19.6 µM; in the data set with WRL68, 158 µM.

In general, IC50 refers to the concentration at which inhibition is half-maximal. One may read the LD50 as the dose at which mortality reaches 50%. Low readings indicate greater toxicity, high ones lower toxicity.
